Paper PMC7552967, “Anti-Melanoma Activities of Artemisone and Prenylated Amino-Artemisinins in Combination With Known Anticancer Drugs” (Frontiers in Pharmacology, 2020)

Assays:
[1] = system: HaCat normal keratinocytes; test: MTT cell viability assay, HaCat; format: cell-based, human; conditions: Homo sapiens, HaCaT, 24 h, combinations 1:1, mean ± SD, read-out: HaCat IC50
Excerpt: The human cell lines TK10 (human kidney adenocarcinoma), UACC62 (human melanoma) and MCF7 (human breast adenocarcinoma) were obtained from the National Cancer Institute (NCI) as part of a panel widely studied for drug screening and molecular target identification. […] The nontumorigenic human immortalized keratinocyte (HaCaT) cells were a kind donation by the School of Anatomical Sciences, Faculty of Health Sciences, University of the Witwatersrand, South Africa. […] All reagents were of analytical grade and were obtained from Merck (Darmstadt, Germany) unless stated otherwise. Cells were cultured in Dulbecco’s modified essential medium (DMEM; Hyclone, GE healthcare, South Logan, UT, USA) containing 10% fetal bovine serum (FBS), 1% penicillin/streptomycin, 1% 200 mM L-Glutamine and 1% nonessential amino acids (Lonza, Basel, Switzerland) at 37°C in a humidified atmosphere of 5% CO2. Stock solutions of the compounds were prepared in dimethyl sulfoxide (DMSO). All subsequent dilutions were prepared in serum-free DMEM and vehicle controls were included in all experiments
The growth inhibitory effects of the compounds were tested in the 3-cell line panel consisting of TK10 (renal), UACC62 (melanoma) and MCF7 (breast) cancer cells by Sulforhodamine B (SRB) assay. […] Compounds prepared in DMSO were tested at 0.01–100 µM serial dilutions to establish initial inhibitory concentrations. […] After 24 h exposure to compounds, growth medium was removed, cells rinsed twice with 1 ml of phosphate buffered saline (PBS) and 100 µl fresh serum-free medium containing 5 mg/ml MTT solution was added MTT solution was prepared fresh for each analysis). Cells were then incubated for 4 h at 37°C, after which the MTT was removed and substituted with 100 µl dimethyl sulfoxide (DMSO) to dissolve the formazan crystals for an h at 37°C. After incubation, cell viability was determined using a microplate reader (BioTek®, Vermont, USA) at an excitation wavelength of 560 nm and emission wavelength of 630 nm with DMSO measured as a blank. Cell viability was expressed as a percentage relative to the untreated control, which is assumed to be 100% viable. For a positive control, cells were treated with 0.01% Triton-X 100 (Sigma-Aldrich, St Louis, MO, USA) for a period of 4 h. Using the MTT assay data, IC50 values were calculated using GraphPad Prism 8. Data were normalized to the positive (alleged to be 0% viable) and negative controls (presumed to be 100% viable), followed by the log-transformation of the concentration values. […] A crude therapeutic index (fold decrease in IC50 value) was calculated as the IC50 of the noncancerous cell-line/IC50 of the cancerous cell line. […] Drug interactions were evaluated for synergism, additivity or antagonism using multiple drug effect analysis, based on the median-principle. Cells were treated with the drug combinations for 24 h and analyzed. The CompuSyn (ComboSyn, Inc. NJ, USA) software package was used to generate the median-effect plots and combination index plots. […] All experiments were performed at least in triplicate and repeated independently.
Next, the quantitative colorimetric MTT assay was used to determine in vitro cell viability with A375 (melanoma) and HaCat (nonmalignant keratinocyte) cells. […] The IC50 was used to determine a crude therapeutic index (fold increase or decline in IC50).

[2] = system: HaCat normal keratinocytes; test: LDH release membrane integrity assay, HaCat; conditions: compounds at their IC50 concentrations, 24 h; combinations 1:1; relative to maximum release
Excerpt: (§1) In order to determine cell membrane integrity, the CytoTox-ONE™ Homogeneous Membrane Integrity Assay (Promega, Madison, WO, USA) was employed. This fluorometric assay measures the release of LDH from cells with damaged cell membranes. […] The manufacturer’s instructions were followed to determine the fluorescence at an excitation wavelength of 560 nm and an emission wavelength of 590 nm. In order to calculate the percentage cytotoxicity, the average fluorescent values of the background medium were subtracted from all average fluorescent values of the experimental samples and the positive control. Cytotoxicity is expressed as a percentage relative to the positive control, which is assumed to be responsible for 100% LDH release. The fold increase in LDH release was taken as the indication of the selectivity toward melanoma cell membranes, calculated as the […]. All experiments were performed at least in triplicate and independently repeated. Statistical significant differences were calculated with one-way ANOVA.
(§2) Results are expressed relative to the untreated control and the maximum release sample, which was set as having 0% and 100% LDH release respectively. The LDH released from the nonmalignant HaCat cells and the A375 melanoma cells was then used to deduce the selectivity of the compounds against melanoma cell membranes.

A375 melanoma cells = test: LDH release membrane integrity assay, A375; format: cell-based, human; conditions: for LDH release, result in words: IC50 concentrations, 24 h (Table 3, Figure 6C); for A375 (% LDH release): compounds at their IC50 concentrations, 24 h, combinations 1:1, relative to maximum release; for Fold increase in LDH release: selectivity toward melanoma cell membranes, A375 vs HaCat
Excerpt: as §1, §2

Row | SMILES | CC50 [1] [µM] | HaCat (% LDH release) [2] [%] | LDH release, result in words (A375 melanoma cells) | A375 (% LDH release) (A375 melanoma cells) [%] | Fold increase in LDH release (A375 melanoma cells)
1 | C[C@@H]1CC[C@H]2[C@@H](C)C(=O)O[C@@H]3O[C@@]4(C)CC[C@@H]1[C@]32OO4 [Artemisinin 2, artemisinin] | 381 ± 5.36 | 18 ± 0.84 | did not significantly increase the release of LDH | 24 ± 0.96 | 1.3
2 | C[C@H]1[C@H](N2CCS(=O)(=O)CC2)O[C@@H]2O[C@@]3(C)CC[C@H]4[C@H](C)CC[C@@H]1[C@@]24OO3 [Artemisone 4, artemisone] | 268.8 ± 1.97 | 19 ± 0.79 | did not significantly increase the release of LDH | 27 ± 0.81 | 1.4
3 | CC(C)=CCC/C(C)=C/CC/C(C)=C/CN1CCN([C@@H]2O[C@@H]3O[C@@]4(C)CC[C@H]5[C@H](C)CC[C@@H]([C@H]2C)[C@@]35OO4)CC1 [Farnesylpiperazine-DHA 7, farnesylpiperazine-DHA] | 70.6 ± 1.07 | 18 ± 0.67 |  | 57 ± 1.21 | 3.1
4 | CC(C)=CCC/C(C)=C/CN1CCN([C@@H]2O[C@@H]3O[C@@]4(C)CC[C@H]5[C@H](C)CC[C@@H]([C@H]2C)[C@@]35OO4)CC1 [Geranylpiperazine-DHA 6, geranylpiperazine-DHA] | 106 ± 3.99 | 17 ± 0.95 |  | 68 ± 0.91 | 4.0
